The numbers were not newly measured in patent publication US6503927B1, “Amorphous paroxetine composition” (Pentech Pharmaceuticals, Inc., priority 1999, dated 2003), which cites them from elsewhere.

Where a name gives a salt, the structure may show the parent alone.

For the data set the following is noted: reported in U.S. Pat. No. 4,721,723 (Barnes et al.) and U.S. Pat. No. 5,672,612 (Ronsen et al.).

Turning to `Fc1ccc([C@@H]2CCNC[C@H]2COc2ccc3c(c2)OCO3)cc1` [amorphous, paroxetine hydrochloride, paroxetine hydrochloride], the “hygroscopicity of the solid” value is “undesirably hygroscopic”.
